Data from paper PMC3353862.
Values after ≈ are worked out from the molar mass of the structure shown.

Experiments:
[1] = system: S. aureus; assay: Broth microdilution MIC testing; format: cell-based, Staphylococcus aureus; settings: for MIC: Staphylococcus aureus, read-out: MIC S. aureus
[2] = system: bacterial protein synthesis (aminoacylation/translation system); assay: aminoacylation/translation (A/T) assay; format: biochemical; settings: for IC50: A/T assay, Table 1, read-out: IC50
[3] = system: E. faecalis; assay: Broth microdilution MIC testing; format: cell-based, Enterococcus faecalis; settings: for MIC: Enterococcus faecalis, read-out: MIC E. fae; for MIC E. fae: E. faecalis
[4] = system: E. coli modified with PMBN; assay: Broth microdilution MIC testing; format: cell-based, Escherichia coli; settings: for MIC: Escherichia coli, read-out: MIC E. coli +PMBP; for MIC E. coli +PMBP: E. coli modified with PMBN
[5] = system: E. coli tolC mutants; assay: Broth microdilution MIC testing; format: cell-based, Escherichia coli; settings: for MIC: Escherichia coli, read-out: MIC E. coli tolC; for MIC E. coli tolC: E. coli tolC mutants
[6] = system: M. catarrhalis; assay: Broth microdilution MIC testing; format: cell-based, Moraxella catarrhalis; settings: for MIC: Moraxella catarrhalis
[7] = system: S. pneumoniae; assay: Broth microdilution MIC testing; format: cell-based, Streptococcus pneumoniae; settings: for MIC: Streptococcus pneumoniae, read-out: MIC S. pneumo; for MIC S. pneumo: S. pneumoniae
[8] = system: panel of bacteria; assay: Antibacterial activity against the panel of bacteria (MIC, overall); format: cell-based; settings: for antibacterial activity: panel of bacteria; as to MIC (antibacterial activity grade): key: +: poor; ++: moderate; +++: good antibacterial activity
[9] = system: H. influenzae; assay: Broth microdilution MIC testing; format: cell-based, Haemophilus influenzae; settings: for MIC: Haemophilus influenzae, read-out: MIC H. flu; for MIC H. flu: H. influenzae

Row | SMILES | MIC [1] [µg/mL] | biochemical activity in the A/T assay [2] | IC50 [2] [nM] | MIC [3] [µg/mL] | MIC [4] [µg/mL] | MIC [5] [µg/mL] | MIC [6] [µg/mL] | MIC [7] [µg/mL] | antibacterial activity [8] | MIC [9] [µg/mL] | MIC S. aureus [1] [µg/mL] | MIC E. fae [3] [µg/mL] | MIC E. coli +PMBP [4] [µg/mL] | MIC E. coli tolC [5] [µg/mL] | MIC M. cat [6] [µg/mL] | MIC S. pneumo [7] [µg/mL] | MIC (antibacterial activity grade) ([8]; Table 3) | MIC H. flu [9] [µg/mL] | MIC (antibacterial activity grade) ([8]; Table 2)
1 | Cn1c(-c2ccccn2)nc2c(c1=O)CN(Cc1ccc(Cl)cc1)CC2 [Compound 323345] | > 128 | abolished most biochemical and antibacterial activities | > 300000 | > 128 | 128 (≈ 349 µM) | 128 (≈ 349 µM) | 32 (≈ 87.2 µM) | 128 (≈ 349 µM) | abolished most biochemical and antibacterial activities | 64 (≈ 174 µM) |  |  |  |  |  |  |  |  | 
2 | Cc1nc(-c2nc3c(c(=O)[nH]2)CN(Cc2ccc(Cl)cc2)CC3)cs1 [Compound 323356] | > 128 | abolished all biochemical activity | > 300000 | 128 (≈ 343 µM) | > 128 | 128 (≈ 343 µM) | 8 (≈ 21.5 µM) | 128 (≈ 343 µM) | slight antibacterial activity | 64 (≈ 172 µM) |  |  |  |  |  |  |  |  | 
3 | CC(C)Oc1ccc(CN2CCc3nc(-c4ccccn4)[nH]c(=O)c3C2)cc1 [Compound 323365] |  |  | 2270 |  |  |  |  |  |  |  | 8 (≈ 21.3 µM) | 16 (≈ 42.5 µM) | 4 (≈ 10.6 µM) | 4 (≈ 10.6 µM) | ≤0.12 | 4 (≈ 10.6 µM) | +++ | 4 (≈ 10.6 µM) | 
4 | CC(C)(C)Oc1ccc(CN2CCc3nc(-c4ccccn4)[nH]c(=O)c3C2)cc1 [Compound 323366] |  |  | 2470 |  |  |  |  |  |  |  | 8 (≈ 20.5 µM) | 8 (≈ 20.5 µM) | 2 (≈ 5.12 µM) | 4 (≈ 10.2 µM) | ≤0.12 | 2 (≈ 5.12 µM) | +++ | 4 (≈ 10.2 µM) | 
5 | O=c1[nH]c(-c2ccccn2)nc2c1CN(Cc1cccc(Br)c1Br)CC2 [Compound 323367] |  |  | 1890 |  |  |  |  |  |  |  | 8 (≈ 16.8 µM) | 4 (≈ 8.4 µM) | 8 (≈ 16.8 µM) | 2 (≈ 4.2 µM) | ≤0.12 | 2 (≈ 4.2 µM) | +++ | 1 (≈ 2.1 µM) | 
6 | O=C(Nc1ccc(Cl)cc1)N1CCc2nc(-c3ccccn3)[nH]c(=O)c2C1 [Compound 323368] | > 128 |  | 470 | > 128 | > 128 | > 128 | > 128 | > 128 | complete loss of antibacterial activity | > 128 |  |  |  |  |  |  |  |  | 
7 | O=c1[nH]c(-c2ccccn2)nc2c1CN(CCc1ccc(Cl)cc1)CC2 [Compound 323370] | 16 (≈ 43.6 µM) |  | 280 | 16 (≈ 43.6 µM) | 8 (≈ 21.8 µM) | 8 (≈ 21.8 µM) | ≤ 0.12 | 4 (≈ 10.9 µM) |  | 2 (≈ 5.45 µM) |  |  |  |  |  |  |  |  | +++
8 | CC1CN(Cc2ccc(Cl)cc2)Cc2c1nc(-c1ccccn1)[nH]c2=O (centres unmarked) [Compound 332054] | 4 (≈ 10.9 µM) |  | 7400 | 8 (≈ 21.8 µM) | 1 (≈ 2.73 µM) | 2 (≈ 5.45 µM) | ≤ 0.12 | 2 (≈ 5.45 µM) |  | 1 (≈ 2.73 µM) |  |  |  |  |  |  | +++ |  | 
9 | O=c1[nH]c(-c2ccccn2)nc2c1CCN(Cc1ccc(Cl)cc1)CC2 [Compound 332058] | 16 (≈ 43.6 µM) |  | 560 | 16 (≈ 43.6 µM) | 4 (≈ 10.9 µM) | 4 (≈ 10.9 µM) | ≤ 0.12 | 2 (≈ 5.45 µM) |  | 0.5 (≈ 1.36 µM) |  |  |  |  |  |  |  |  | +++
